Source: PubChem BioAssay (NCI)
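Where inhibition never reached the appropriate level, the endpoint shown equals the highest concentration tested. Otherwise, values were interpolated linearly from a five-concentration, 48-hour dose response in 96-well plates. Abbreviation: GI50, concentration required for 50% inhibition of growth. TGI is the concentration that stops growth completely.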

Experiments:
Assay in all cases: inhibition of tumour cell growth, NCI panel, 48 h
786-0 renal = test system: 786-0 renal
CAKI-1 renal = test system: CAKI-1 renal
KM12 colon = test system: KM12 colon
M14 melanoma = test system: M14 melanoma
OVCAR-4 ovarian = test system: OVCAR-4 ovarian
OVCAR-5 ovarian = test system: OVCAR-5 ovarian
SF-268 CNS = test system: SF-268 CNS
SW-620 colon = test system: SW-620 colon
TK-10 renal = test system: TK-10 renal
UACC-257 melanoma = test system: UACC-257 melanoma

Row | Structure (SMILES) | GI50 (786-0 renal) | TGI (786-0 renal) | GI50 (CAKI-1 renal) | TGI (CAKI-1 renal) | GI50 (KM12 colon) | TGI (KM12 colon) | GI50 (M14 melanoma) | TGI (M14 melanoma) | GI50 (OVCAR-4 ovarian) | TGI (OVCAR-4 ovarian) | GI50 (OVCAR-5 ovarian) | TGI (OVCAR-5 ovarian) | GI50 (SF-268 CNS) | TGI (SF-268 CNS) | GI50 (SW-620 colon) | TGI (SW-620 colon) | GI50 (TK-10 renal) | TGI (TK-10 renal) | GI50 (UACC-257 melanoma) | TGI (UACC-257 melanoma)
1 | C=C[C@]1(C)C=C2C(=O)[C@@]3(O)OC[C@@]4(CCCC(C)(C)C43O)C2(O)C(O)C1 (stereo not given in full) | 2.21 µM | 5.51 µM | 2.38 µM | 7.71 µM | 13.1 µM | 26.8 µM | 1.55 µM | 3.01 µM | 2.32 µM | 5.47 µM | 12.1 µM | 25.9 µM | 11.3 µM | 23.9 µM | 0.827 µM | 2.31 µM | 1.56 µM | 3.03 µM | 2.06 µM | 4.21 µM
2 | CCOC(=O)c1c(C)n(Cc2ccc(Cl)cc2Cl)c2c1cc1oc(=O)c(=O)n3c(Cc4ccccc4)nc2c13 | 5.18 µM | 19.2 µM | 2.69 µM | 9.36 µM | 1.63 µM | 3.47 µM | 13 µM | 36.7 µM | 4.45 µM | 16.4 µM | 2.73 µM | 6.16 µM | 2.31 µM | 5.84 µM | 1.95 µM | 4.3 µM | 2.64 µM | 6.95 µM | 17.3 µM | 36.3 µM
3 | O=C1c2ccccc2C(=O)C1C(c1ccc([N+](=O)[O-])cc1)C1C(=O)c2ccccc2C1=O | – | > 100 µM | – | 95 µM | – | > 100 µM | – | > 100 µM | – | > 100 µM | – | > 100 µM | – | 73.6 µM | – | 32.3 µM | – | > 100 µM | – | > 100 µM
4 | COC(=O)[C@@H]1CCCN1C(=O)[C@@H]1CCCN1C(=O)[C@@H](Cc1c[nH]c2ccccc12)NC(=S)Nc1cc(C(F)(F)F)cc(C(F)(F)F)c1 | 5.95 µM | 20.1 µM | 16.9 µM | > 100 µM | 5.45 µM | > 100 µM | 4.68 µM | 21.1 µM | 4.32 µM | > 100 µM | 15 µM | 73 µM | 6.44 µM | > 100 µM | 4.34 µM | > 100 µM | 10.9 µM | 87.8 µM | 4.06 µM | 35.3 µM
5 | CCSc1nc(COC(=O)NC)c(COC(=O)NC)n1C | – | > 100 µM | – | > 78.2 µM | – | > 100 µM | – | > 83 µM | – | > 84.7 µM | – | > 100 µM | – | > 100 µM | – | > 100 µM | – | > 100 µM | – | > 100 µM
6 | COc1ccc2c(c1)C(=O)c1c-2n(CCCN2CCOCC2)c(=O)c2ccccc12 | 2.38 µM | 9.46 µM | 1.79 µM | 8.07 µM | 3.64 µM | 42.5 µM | 2.85 µM | 7.87 µM | 4.57 µM | > 100 µM | 6.18 µM | > 100 µM | 2.7 µM | > 43.9 µM | 2.31 µM | > 100 µM | 4.62 µM | 57.2 µM | 4.46 µM | > 31.5 µM
7 | Oc1cc(Cl)ccc1Oc1ccc(Cl)cc1Cl | 2.47 µM | 6.61 µM | 4.84 µM | 17.8 µM | 3.6 µM | 12.7 µM | 2.86 µM | 7.24 µM | 2.79 µM | 9.41 µM | 3.37 µM | 12.1 µM | 4.53 µM | 16.4 µM | 3.51 µM | 12.7 µM | 3.47 µM | 9.59 µM | 2.28 µM | 6.48 µM
8 | COC1CC(n2cnc3c(N)ncnc32)OC1CO (stereo not given) | – | > 100 µM | – | > 100 µM | – | > 100 µM | – | > 100 µM | – | > 100 µM | – | > 100 µM | – | > 100 µM | – | > 100 µM | – | > 100 µM | – | > 100 µM
9 | Nc1nc(OCc2ccccc2)nc2[nH]ncc12 | 18.7 µM | 44.4 µM | 11.1 µM | 33.2 µM | 16.2 µM | 34.5 µM | 36.6 µM | > 100 µM | 17.5 µM | 63.4 µM | 11.9 µM | 28.2 µM | 17.1 µM | 48.4 µM | 18.9 µM | 39.3 µM | 1.39 µM | 14.2 µM | 19 µM | 37.1 µM
10 | C[C@H](CS(C)(=O)=O)Nc1ncc2cc(Oc3ccc(F)cc3F)c(=O)n(C)c2n1 | > 25 µM | > 25 µM | > 25 µM | > 25 µM | > 25 µM | > 25 µM | > 25 µM | > 25 µM | > 25 µM | > 25 µM | > 25 µM | > 25 µM | > 25 µM | > 25 µM | > 25 µM | > 25 µM | > 25 µM | > 25 µM | > 25 µM | > 25 µM
